From patent US4087461A, “Anti-androgenic steroids” (The Johns Hopkins University, priority 1977, dated 1978)
“Also recorded” adds a separate entry of the source.

Assays:
[1] = test system: endogenous androgen biosynthesis; test: study in intact male rats: weights of sex accessory tissue and other organs; assay type: in vivo, male Sprague-Dawley rats; settings: 7 days; for Adrenal weight (± Sem): intact control 27 ± 2; for Dorsal Lateral Prostate weight (± Sem): intact control 244 ± 12; for Seminal Vesicles weight (± Sem): intact control 394 ± 12; for Ventral Prostate weight (± Sem): intact control 421 ± 15; for Kidney weight (± Sem): intact control 1260 ± 63; for Testis weight (± Sem): intact control 1650 ± 38
Method: Studies with intact male Sprague-Dawley rats (300g body weight) are illustrated for compounds (1) and (2).
Similarly, compound (2), […] rats at a dosage of 20mg per kilo for 7 days produced 20% reduction in weight of the ventral prostate and 28% reduction of the dorsal lateral prostate.
The following data illustrates the inhibiting effect of estryne and pregnyne on Δ^5 -3-ketosteroid isomerase (EC 5.3.3.1) as evidenced by a depression of the wet weight of the sex accessory tissue in the mature male rat treated with the estryne and pregnyne.
A. Male rats were used to assess the effect of estryne on endogenous androgen biosynthesis at varying doses (1-20 mg/kg body weight). […] On the eighth day the animals were sacrificed and the ventral prostate, dorsal lateral prostate, seminal vesicles, testes, kidneys, and adrenals were removed and weighed. Samples of each tissue were preserved in 10% buffered formalin for histological examination.
B. Male rats were treated with 19-norpregnyne by a regimen exactly as described for the estryne.

[2] = molecular target: T1, Δ^5 -3-ketosteroid isomerase (EC 5.3.3.1) (Comamonas testosteroni, UniProt P00947); test: irreversible inactivation of crystalline purified bacterial Δ^5-3-ketosteroid isomerase by acetylenic steroids (Kitz and Wilson kinetic analysis); assay type: biochemical, Pseudomonas testosteroni
T1 sequence (P00947 whole entry, stated change not applied): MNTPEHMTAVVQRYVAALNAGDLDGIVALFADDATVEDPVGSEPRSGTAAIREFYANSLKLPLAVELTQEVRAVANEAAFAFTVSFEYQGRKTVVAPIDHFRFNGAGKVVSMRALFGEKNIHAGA
Method: The inactivation is progressive with time, and half-lives in the range of 150-1320 sec are observed at concentrations of 20-200 μM of the two inhibitors. The enzymatic activities of control vessels which received only equivalent volumes of 1,4-dioxane remained constant at initial activities.
The initial rates of inactivation of the isomerase by (1) and (2) can be analyzed by the method of Kitz and Wilson^8 since very satisfactory pseudo-first-order behavior was observed. It is assumed that [I] (inhibitor) >> [E] (enzyme), that [E.I] (the reversible enzyme-inhibitorcomplex) is at all times in equilibrium with enzyme and inhibitor, and that ^k cat >> ^k inh. The scheme for the formation of EI' (the irreversible enzyme-inhibitor derivative) may then be represented as follows.
If the enzyme-inhibitor solution is diluted extensively prior to assay, the active enzyme (ε) = [E] + [E.I]. Then -d(ε)/dt = k3 [E.I.], and K1 = ([E][I])/[EI]. Thus [formula] where Et = total amount of enzyme in system.
If one defines [formula] Consequently double reciprocal plots of kapp with respect to [I] should be linear, with slopes and intercepts permitting the determination of K1 and k3 where the latter is the overall rate constant for the irreversible inhibition process.
From plots of 1n ε (residual enzymatic activity) vs. time, kapp has been determined at five inhibitor concentrations for both compounds 1 and 2, i.e. estryne and pregnyne. Strict linearity of the semilogarithmic plots has been observed in all cases, over greater than two half-lives. A plot of 1/kapp vs. 1/[I] was linear and gave k3 and K1 (FIG. 1). For compound 1, K1 = 56 μM and k3 = 1.98 × 10^-3 sec^-1, and for compound 2, K1 = 32 μM and k3 = 4.10 × 10^-3 sec^-1.
Studies were performed using crystalline purified bacterial Δ^5 -3-ketosteroid isomerase (from P. testosteroni), under pseudo first order conditions using the kinetic analysis of R. Kitz and I. B. Wilson [J. Biol. Chem., 237, 3245 (1964)].

[3] = molecular target: T2, cytosol androgen receptor (prostate androgen binding protein) (Rattus norvegicus, UniProt P15207); test: inhibition of nuclear uptake of ^3H-dihydrotestosterone in ventral prostate minces (binding to the prostatic androgen receptor)
T2 construct: freshly minced ventral prostate tissue obtained from rats castrated 24 hours before sacrifice; from tissue; host or cells: ventral prostate minces of castrated rats
T2 sequence (P15207 1-902): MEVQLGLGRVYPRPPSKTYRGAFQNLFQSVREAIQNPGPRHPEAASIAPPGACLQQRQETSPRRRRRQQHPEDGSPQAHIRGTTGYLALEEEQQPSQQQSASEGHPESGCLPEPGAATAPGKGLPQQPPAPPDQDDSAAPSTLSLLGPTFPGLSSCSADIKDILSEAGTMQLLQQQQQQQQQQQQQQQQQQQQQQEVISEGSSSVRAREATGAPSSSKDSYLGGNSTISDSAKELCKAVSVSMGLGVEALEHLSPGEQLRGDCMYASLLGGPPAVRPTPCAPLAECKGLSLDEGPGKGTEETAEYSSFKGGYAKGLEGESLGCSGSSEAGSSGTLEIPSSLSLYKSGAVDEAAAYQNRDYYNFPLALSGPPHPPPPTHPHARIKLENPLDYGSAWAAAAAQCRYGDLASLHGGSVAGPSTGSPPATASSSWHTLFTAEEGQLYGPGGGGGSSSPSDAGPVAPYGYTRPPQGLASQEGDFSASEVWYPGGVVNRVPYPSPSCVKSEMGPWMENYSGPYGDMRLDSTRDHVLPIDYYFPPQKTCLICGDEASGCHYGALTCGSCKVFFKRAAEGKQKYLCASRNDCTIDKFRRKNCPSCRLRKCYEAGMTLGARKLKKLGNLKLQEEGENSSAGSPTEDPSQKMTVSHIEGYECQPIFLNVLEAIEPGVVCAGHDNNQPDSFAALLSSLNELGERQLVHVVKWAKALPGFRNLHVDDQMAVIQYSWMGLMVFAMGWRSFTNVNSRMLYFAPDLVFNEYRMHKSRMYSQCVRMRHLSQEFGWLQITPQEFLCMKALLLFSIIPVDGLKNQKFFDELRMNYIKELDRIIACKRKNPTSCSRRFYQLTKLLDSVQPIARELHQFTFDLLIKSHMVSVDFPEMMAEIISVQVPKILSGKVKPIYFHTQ
Method: The binding to the cytosol androgen receptor was determined by the procedure of Fang (5) with modification. […] The amount of radioactivity in the nuclei is expressed as observed counts per minute per 100 μg DNA.

[4] = molecular target: T1, Δ^5 -3-ketosteroid isomerase (EC 5.3.3.1); test: irreversible inactivation of crystalline purified bacterial Δ^5-3-ketosteroid isomerase by acetylenic steroids (Kitz and Wilson kinetic analysis); assay type: biochemical, Pseudomonas testosteroni; settings: 24 hr at 4° vs. 1 mM potassium phosphate buffer, pH 7.0
[5] = 20mg per kilo per day, i.p. in propylene glycol

## C[C@]12CC[C@@H]3C(=O)CCC(=O)CC#CC[C@H]3[C@@H]1CCC2=O [Compound 1, 5,10-secoestr-5-yne-3,10,17-trione]
[1]; [5]
  reduction in weight of the dorsal lateral prostate: 25-30%
  reduction in weight of the ventral prostate: 28%
[1]; 20mg per kilo per day, i.p. in propylene glycol, listed as estryne
  reduction in weight of the ventral prostate: 25-30%
[1]; 1-20 mg/kg, in words
  dose dependence of the effect on prostatic weight: dose dependent
[1]; in words
  effect on weight of the adrenal: no effect
  effect on weight of the kidney: no effect
  effect on weight of the seminal vesicles: Only a modest decrease
  effect on weight of the testes: no effect
  effect on wet weight of the dorsal-lateral prostate: depresses the wet weight
  effect on wet weight of the ventral prostate: depresses the wet weight
[1]; estryne 1 mg/kg daily i.p.
  Adrenal weight (± Sem): 28 ± 2 mg
  Dorsal Lateral Prostate weight (± Sem): 212 ± 19 mg
  Seminal Vesicles weight (± Sem): 380 ± 18 mg
  Ventral Prostate weight (± Sem): 435 ± 23 mg
  Kidney weight (± Sem): 1320 ± 68 mg
  Testis weight (± Sem): 1650 ± 60 mg
[1]; estryne 5 mg/kg daily i.p.
  Adrenal weight (± Sem): 26 ± 2 mg
  Dorsal Lateral Prostate weight (± Sem): 195 ± 8 mg
  Seminal Vesicles weight (± Sem): 368 ± 16 mg
  Ventral Prostate weight (± Sem): 385 ± 8 mg
  Kidney weight (± Sem): 1090 ± 39 mg
  Testis weight (± Sem): 1590 ± 54 mg
[1]; estryne 10 mg/kg daily i.p.
  Adrenal weight (± Sem): 30 ± 2 mg
  Dorsal Lateral Prostate weight (± Sem): 188 ± 6 mg
  Seminal Vesicles weight (± Sem): 387 ± 14 mg
  Ventral Prostate weight (± Sem): 364 ± 25 mg
  Kidney weight (± Sem): 1150 ± 42 mg
  Testis weight (± Sem): 1580 ± 59 mg
[1]; estryne 20 mg/kg daily i.p.
  Adrenal weight (± Sem): 30 ± 3 mg
  Dorsal Lateral Prostate weight (± Sem): 177 ± 15 mg
  Seminal Vesicles weight (± Sem): 309 ± 23 mg
  Ventral Prostate weight (± Sem): 302 ± 28 mg
  Kidney weight (± Sem): 1040 ± 35 mg
  Testis weight (± Sem): 1420 ± 64 mg
[2]; in words
  irreversible inhibition / inactivation of the enzyme: rapid irreversible inhibition; also recorded: rapid irreversible and complete inactivation of the enzyme; also recorded: Powerful irreversible inhibition
[2]; pH 7.0, 20-200 μM of the two inhibitors, in 1,4-dioxane
  half-life of enzyme inactivation: 150 to 1320 s
[2]; pH 7, pseudo first order conditions, five inhibitor concentrations (10-fold range), read-out: k3, overall rate constant for the irreversible inhibition process
  kinact: 0.00198 s⁻¹
[2]; pseudo first order conditions, five inhibitor concentrations (10-fold range), read-out: K1 (KI), inhibitor dissociation constant
  Ki: 56 µM
[3]; 2 × 10^-6 M with ^3H-DHT 2 × 10^-9 M
  inhibition of nuclear uptake of ^3H-dihydrotestosterone: approximately 50%
[3]; rat, 1 h, pH 7.4, steroid 2 × 10^-6 M with ^3H-DHT 2 × 10^-9 M, read-out: nuclear uptake of ^3H-DHT, % Control
  remaining activity at 2 µM: 56%
[3]; steroid 2 × 10^-6 M with ^3H-DHT 2 × 10^-9 M, control 8,471
  CPM/100 DNA (nuclear uptake of ^3H-DHT): 4,771 CPM/100 DNA
[4]
  restoration of enzymatic activity by prolonged dialysis: inability to restore enzymatic activity
